In patent publication US20170042152A1, “SAFENED HERBICIDAL COMPOSITIONS COMPRISING PYRIDINE CARBOXYLIC ACIDS” (priority 2015, published 2017):

Experiments:
Canada thistle (CIRAR) [1] = assay: Small plot field trial, weed growth reduction; assay type: in vivo, Cirsuim arvensis; details: 20 g ae/ha herbicide (triisopropanol amine salt), no safener, post-emergence, mean
winter wheat (TRZAW) [2] = assay: Small plot field trial, crop safety; assay type: in vivo, Triticum aestivum; details: 20 g ae/ha herbicide (triisopropanol amine salt), no safener, post-emergence, mean
Procedure: (§1) The triisopropanol amine salts of herbicides of formulas I-G-A, I-G-B and I-G-C were tested with and without cloquintocet-mexyl in small plot field trials across various ecozones to evaluate the crop safety of these compounds on […] cereals including winter wheat and durum wheat.
(§2) All herbicide treatments were applied post-emergence in the spring to early summer. Herbicides were applied with bicycle or tractor-mounted sprayers using carbon dioxide (CO2) as a propellant. The sprayers delivered a uniform spray pattern that provided thorough coverage of the foliage using a 150 or 200 L/ha spray volume. At the time of herbicide applications, winter wheat was at the two leaf growth stage and durum wheat was at the 2-3 leaf growth stage.
(§3) Phytotoxicity to cereal crops was visually assessed as percent overall injury, compared to an untreated control plot. The overall injury assessments were based on visual ratings of growth inhibition, chlorosis, and delay in maturity. At late ratings (54-57 days after application), percent visual seed head deformity and reduction in seed formation were also assessed. Trials were designed as randomized complete blocks with four replicates. In general, three to four replicates were assessed for each treatment.

lambsquarters (CHEAL) [3] = assay: Small plot field trial, weed growth reduction; assay type: in vivo, Chenopodium album; details: 20 g ae/ha herbicide (triisopropanol amine salt), no safener, post-emergence, mean
durum wheat (TRZDU) = assay: Small plot field trial, crop safety; assay type: in vivo, Triticum durum; details: 20 g ae/ha herbicide (triisopropanol amine salt), no safener, post-emergence, mean
Procedure: as §1, §2, §3

wild buckwheat (POLCO) = assay: Greenhouse postemergence trial, weed efficacy; assay type: in vivo, Polygonum convulvus; details: herbicide 0 g ae/ha, 20-22 d
Procedure: (§4) Seeds of the desired test plant species were planted in Sun Gro MetroMix® 306 planting mixture, which typically has a pH of 6.0 to 6.8 and an organic matter content of about 30 percent, in plastic pots with a surface area of 103.2 square centimeters (cm^2). When required to ensure good germination and healthy plants, a fungicide treatment and/or other chemical or physical treatment was applied. The plants were grown for 7-36 days (d) in a greenhouse with an approximate 14-hour (h) photoperiod which was maintained at about 18° C. during the day and 17° C. during the night. Nutrients and water were added on a regular basis and supplemental lighting was provided with overhead metal halide 1000-Watt lamps as necessary. The plants were employed for testing when they reached the second or third true leaf stage.
(§5) Weighed amounts of technical material were dissolved in a volume of 97:3 volume per volume (v/v) acetone/dimethyl sulfoxide (DMSO) to stock solutions. […] Compound requirements are based upon a 12 milliliter (mL) application volume at a rate of 187 liters per hectare (L/ha). Stock solutions of the safeners were prepared following the same procedure. Spray solutions of the safeners and experimental compound mixtures were prepared by adding the stock solutions to the appropriate amount of dilution solution to form a 12 mL spray solution in two-way combinations. Formulated compounds were applied to the plant material with an overhead Mandel track sprayer equipped with 8002E nozzles calibrated to deliver 187 L/ha over an application area of 0.503 square meters (m^2) at a spray height of 18 inches (43 centimeters (cm)) above average plant canopy. Control plants were sprayed in the same manner with the solvent blank.
(§6) The treated plants and control plants were placed in a greenhouse as described above and watered by sub-irrigation to prevent wash-off of the test compounds. After 20-22 d, the condition of the test plants as compared with that of the control plants was determined visually and scored on a scale of 0 to 100 percent where 0 corresponds to no injury and 100 corresponds to complete kill. Colby's equation was used to determine the herbicidal effects expected from the mixtures.

lambsquarters (CHEAL) [4] = assay: Greenhouse postemergence trial, weed efficacy; assay type: in vivo, Chenopodium album; details: herbicide 0 g ae/ha, 20-22 d
Procedure: as §4, §5, §6

wild pansy (VIOTR) = assay: Greenhouse postemergence trial, weed efficacy; assay type: in vivo, Viola tricolor; details: herbicide 0 g ae/ha, 20-22 d
Procedure: as §4, §5, §6

Russian thistle (SASKR) = assay: Greenhouse postemergence trial, weed efficacy; assay type: in vivo, Salsola iberica; details: herbicide 0 g ae/ha, 20-22 d
Procedure: as §4, §5, §6

winter wheat (TRZAW) [5] = assay: Greenhouse postemergence safening trial, crop phytotoxicity; assay type: in vivo, Triticum aestivum; details: herbicide 0 g ae/ha, 20-22 d
Procedure: as §4, §5, §6

spring wheat (TRZAS) = assay: as above; assay type: in vivo, Triticum aestivum; details: herbicide 0 g ae/ha, 20-22 d
Procedure: as §4, §5, §6

kochia (KCHSC) = assay: Greenhouse postemergence trial, weed efficacy; assay type: in vivo, Kochia scoparia; details: herbicide 0 g ae/ha, 20-22 d
Procedure: as §4, §5, §6

[6] = tested on: bird's-eye speedwell (VERPE); assay: Greenhouse postemergence trial, weed efficacy; assay type: in vivo, Veronica persica; details: herbicide 0 g ae/ha, 20-22 d
Procedure: as §4, §5, §6

wild chamomile (MATCH) = assay: Greenhouse postemergence trial, weed efficacy; assay type: in vivo, Matricaria chamomilla; details: herbicide 0 g ae/ha, 20-22 d
Procedure: as §4
as §5, with “Control plants were sprayed in the same manner with the solvent blank.” left out
as §6, with “Colby's equation was used to determine the herbicidal effects expected from the mixtures.” left out

spring barley (HORVS) = assay: Greenhouse postemergence safening trial, crop phytotoxicity; assay type: in vivo, Hordeum vulgare; details: herbicide 0 g ae/ha, 20-22 d
Procedure: as §4, §5, §6

pigweed (AMARE) = assay: Greenhouse postemergence trial, weed efficacy; assay type: in vivo, Amaranthis retroflexus; details: herbicide 0 g ae/ha, 20-22 d
Procedure: as §4
as §5, with “Control plants were sprayed in the same manner with the solvent blank.” left out
as §6, with “Colby's equation was used to determine the herbicidal effects expected from the mixtures.” left out

wild mustard (SINAR) = assay: Greenhouse postemergence trial, weed efficacy; assay type: in vivo, Sinapis arvensis; details: herbicide 0 g ae/ha, 20-22 d
Procedure: as §4, §5, §6

shepherd's purse (CAPBP) = assay: Greenhouse postemergence trial, weed efficacy; assay type: in vivo, Capsella bura-pastoris; details: herbicide 0 g ae/ha, 20-22 d
Procedure: as §4, §5, §6

Canada thistle (CIRAR) [7] = assay: Greenhouse postemergence trial, weed efficacy; assay type: in vivo, Cirsium arvense; details: herbicide 0 g ae/ha, 20-22 d
Procedure: as §4
as §5, with “Control plants were sprayed in the same manner with the solvent blank.” left out
as §6, with “Colby's equation was used to determine the herbicidal effects expected from the mixtures.” left out

[8] = cloquintocet-mexyl 4.375 g ai/ha
[9] = cloquintocet-mexyl 8.75 g ai/ha
[10] = cloquintocet-mexyl 17.5 g ai/ha

SMILES: CC(F)c1nc(C(=O)O)c(Cl)c(N)c1F (centres unmarked) [formula I-G-B]
- Growth reduction of CIRAR, % of untreated (Canada thistle (CIRAR) [1]): 85 % of untreated
- Instances of TRZAW grain reduction, % of untreated (winter wheat (TRZAW) [2]): 83.3 % of untreated
- TRZAW grain formation reduction, % of untreated (winter wheat (TRZAW) [2]): 68.3 % of untreated
- Growth reduction of CHEAL, % of untreated (lambsquarters (CHEAL) [3]): 100 % of untreated
- TRZDU Visual head deformation, % of untreated (durum wheat (TRZDU)): 6.4 % of untreated
- TRZDU Visual injury, % of untreated (durum wheat (TRZDU)): 6.4 % of untreated

SMILES: CCCCCC(C)OC(=O)COc1ccc(Cl)c2cccnc12 (centres unmarked) [Cloquintocet-mexyl, cloquintocet-mexyl]
- % visual injury POLCO Ob (wild buckwheat (POLCO); [8]): 0%
- % visual injury POLCO Ob (wild buckwheat (POLCO); [9]): 0%
- % visual injury POLCO Ob (wild buckwheat (POLCO); [10]): 0%
- % visual injury POLCO Ob (wild buckwheat (POLCO); cloquintocet-mexyl 35 g ai/ha): 0%
- % visual injury POLCO Ob (wild buckwheat (POLCO); cloquintocet-mexyl 70 g ai/ha): 0%
- % visual injury CHEAL Ob (lambsquarters (CHEAL) [4]; cloquintocet-mexyl 20 g ai/ha): 0%
- % visual injury CHEAL Ob (lambsquarters (CHEAL) [4]; cloquintocet-mexyl 40 g ai/ha): 0%
- % visual injury CHEAL Ob (lambsquarters (CHEAL) [4]; cloquintocet-mexyl 80 g ai/ha): 0%
- % visual injury VIOTR Ob (wild pansy (VIOTR); [8]): 0%
- % visual injury VIOTR Ob (wild pansy (VIOTR); [9]): 0%
- % visual injury VIOTR Ob (wild pansy (VIOTR); [10]): 0%
- % visual injury VIOTR Ob (wild pansy (VIOTR); cloquintocet-mexyl 20 g ai/ha): 0%
- % visual injury VIOTR Ob (wild pansy (VIOTR); cloquintocet-mexyl 35 g ai/ha): 0%
- % visual injury VIOTR Ob (wild pansy (VIOTR); cloquintocet-mexyl 40 g ai/ha): 0%
- % visual injury VIOTR Ob (wild pansy (VIOTR); cloquintocet-mexyl 70 g ai/ha): 0%
- % visual injury VIOTR Ob (wild pansy (VIOTR); cloquintocet-mexyl 80 g ai/ha): 0%
- % visual injury SASKR Ob (Russian thistle (SASKR); [8]): 0%
- % visual injury SASKR Ob (Russian thistle (SASKR); [9]): 0%
- % visual injury SASKR Ob (Russian thistle (SASKR); [10]): 0%
- % visual injury SASKR Ob (Russian thistle (SASKR); cloquintocet-mexyl 35 g ai/ha): 0%
- % visual injury SASKR Ob (Russian thistle (SASKR); cloquintocet-mexyl 70 g ai/ha): 0%
- % visual injury TRZAW Ob (winter wheat (TRZAW) [5]; cloquintocet-mexyl 20 g ai/ha): 0%
- % visual injury TRZAW Ob (winter wheat (TRZAW) [5]; cloquintocet-mexyl 40 g ai/ha): 0%
- % visual injury TRZAW Ob (winter wheat (TRZAW) [5]; cloquintocet-mexyl 80 g ai/ha): 0%
- % visual injury TRZAS Ob (spring wheat (TRZAS); [8]): 0%
- % visual injury TRZAS Ob (spring wheat (TRZAS); [9]): 0%
- % visual injury TRZAS Ob (spring wheat (TRZAS); [10]): 0%
- % visual injury TRZAS Ob (spring wheat (TRZAS); cloquintocet-mexyl 35 g ai/ha): 0%
- % visual injury TRZAS Ob (spring wheat (TRZAS); cloquintocet-mexyl 70 g ai/ha): 0%
- % visual injury KCHSC Ob (kochia (KCHSC); [8]): 0%
- % visual injury KCHSC Ob (kochia (KCHSC); [9]): 0%
- % visual injury KCHSC Ob (kochia (KCHSC); [10]): 0%
- % visual injury KCHSC Ob (kochia (KCHSC); cloquintocet-mexyl 20 g ai/ha): 0%
- % visual injury KCHSC Ob (kochia (KCHSC); cloquintocet-mexyl 35 g ai/ha): 0%
- % visual injury KCHSC Ob (kochia (KCHSC); cloquintocet-mexyl 40 g ai/ha): 0%
- % visual injury KCHSC Ob (kochia (KCHSC); cloquintocet-mexyl 70 g ai/ha): 0%
- % visual injury KCHSC Ob (kochia (KCHSC); cloquintocet-mexyl 80 g ai/ha): 0%
- % visual injury VERPE Ob [6, 8]: 0%
- % visual injury VERPE Ob [6, 9]: 0%
- % visual injury VERPE Ob [6, 10]: 0%
- % visual injury VERPE Ob ([6]; cloquintocet-mexyl 35 g ai/ha): 0%
- % visual injury VERPE Ob ([6]; cloquintocet-mexyl 70 g ai/ha): 0%
- % visual injury MATCH Ob (wild chamomile (MATCH); cloquintocet-mexyl 20 g ai/ha): 0%
- % visual injury MATCH Ob (wild chamomile (MATCH); cloquintocet-mexyl 40 g ai/ha): 0%
- % visual injury MATCH Ob (wild chamomile (MATCH); cloquintocet-mexyl 80 g ai/ha): 0%
- % visual injury HORVS Ob (spring barley (HORVS); [8]): 0%
- % visual injury HORVS Ob (spring barley (HORVS); [9]): 0%
- % visual injury HORVS Ob (spring barley (HORVS); [10]): 0%
- % visual injury HORVS Ob (spring barley (HORVS); cloquintocet-mexyl 20 g ai/ha): 0%
- % visual injury HORVS Ob (spring barley (HORVS); cloquintocet-mexyl 35 g ai/ha): 0%
- % visual injury HORVS Ob (spring barley (HORVS); cloquintocet-mexyl 40 g ai/ha): 0%
- % visual injury HORVS Ob (spring barley (HORVS); cloquintocet-mexyl 70 g ai/ha): 0%
- % visual injury HORVS Ob (spring barley (HORVS); cloquintocet-mexyl 80 g ai/ha): 0%
- % visual injury AMARE Ob (pigweed (AMARE); cloquintocet-mexyl 20 g ai/ha): 0%
- % visual injury AMARE Ob (pigweed (AMARE); cloquintocet-mexyl 40 g ai/ha): 0%
- % visual injury AMARE Ob (pigweed (AMARE); cloquintocet-mexyl 80 g ai/ha): 0%
- % visual injury SINAR Ob (wild mustard (SINAR); cloquintocet-mexyl 20 g ai/ha): 0%
- % visual injury SINAR Ob (wild mustard (SINAR); cloquintocet-mexyl 40 g ai/ha): 0%
- % visual injury SINAR Ob (wild mustard (SINAR); cloquintocet-mexyl 80 g ai/ha): 0%
- % visual injury CAPBP Ob (shepherd's purse (CAPBP); cloquintocet-mexyl 20 g ai/ha): 0%
- % visual injury CAPBP Ob (shepherd's purse (CAPBP); cloquintocet-mexyl 40 g ai/ha): 0%
- % visual injury CAPBP Ob (shepherd's purse (CAPBP); cloquintocet-mexyl 80 g ai/ha): 0%
- % visual injury CIRAR Ob (Canada thistle (CIRAR) [7]; cloquintocet-mexyl 20 g ai/ha): 0%
- % visual injury CIRAR Ob (Canada thistle (CIRAR) [7]; cloquintocet-mexyl 40 g ai/ha): 0%
- % visual injury CIRAR Ob (Canada thistle (CIRAR) [7]; cloquintocet-mexyl 80 g ai/ha): 0%
